The source of these data is publication PMC10518257 (Nature Cancer, 2023).

“And” between values parts separate entries of the source, which are not always exact repeats. Equal entries are not always repeated.

The test relates to LUAD-0087AS2 PDX. Put plainly: PDX efficacy study. The settings on record: individual animals; for Tumor volume: LUAD-0087AS2, 30 mg/kg BID.

`COc1ccc(CN2C3CC2CN(c2ccc(-c4cc(OCC(C)(C)O)cn5ncc(C#N)c45)cn2)C3)cn1` [Sepercatinib]: where the note is “Fig. 6a LUAD-0087AS2, selpercatinib 30 mg/kg BID”, the “Change in tumor volume (% from base line)” value is -13.818% and -42.542% and -38.123% and -35.767% and -33.072%.

In the case of `COC1(C(=O)NC(C)c2ccc(-n3cc(F)cn3)nc2)CCC(c2nc(C)cc(Nc3cc(C)[nH]n3)n2)CC1` (stereo not drawn) [Prasletinib], the Tumor volume was 122.74 and 122.52 (2×) and 118.47 (2×) (treatment day 0); 116.87 and 110.97 (2×) and 118.47 and 114.83 (treatment day 3); 100.16 and 96.62 (2×) and 101.37 and 91.61 (treatment day 7); 100.16 and 103.77 and 96.62 and 99.78 and 95.03 (treatment day 10); 96.88 and 83.83 and 88.25 and 99.78 and 90.28 (treatment day 14); 103.77 and 79.42 and 83.83 (2×) and 96.62 (treatment day 17). Besides, the Tumor volume (treatment day 21) was 90.28 and 70.82 and 74.9 and 83.83 (2×); the Tumor volume (treatment day 24) is 74.9 and 54.36 and 71.99 (2×) and 58.99; the Tumor volume (treatment day 29) was 72.18 and 54.36 and 71.99 and 57.83 and 56.67; the Tumor volume (treatment day 32) is 75.04 and 60.32 (2×) and 74.9 and 57.83; the Tumor volume (treatment day 35) was 75.04 and 60.32 and 74.9 (2×) and 57.83; the Tumor volume (treatment day 38) was 75.04 and 60.32 and 77.63 and 90.28 and 57.83. In addition, the Tumor volume is, setting by setting: (treatment day 42) 77.87 and 68.07 and 77.63 and 90.28 and 60.32; (treatment day 45) 77.87 and 68.07 and 70.69 (2×) and 60.32.
